Experimental data taken from patent US20250009763A1, “METHODS FOR EXTENDING LIFESPAN AND/OR DELAYING AGING” (priority 2023, published 2025).

System: yeast BY4741 (WT)
Test: Micromanipulation assay of replicative lifespan (RLS)
Type: cell-based, Saccharomyces cerevisiae
Conditions: 25 μM; FIG. 1F
Method: The micromanipulation of the yeast cells was carried out as follows. Prior to analysis, yeast strains BY4741 (WT), BY4741-fob1Δ (fob1Δ), or BY4741-sir2Δfob1Δ (sir2Δfob1Δ) were plated onto fresh solid YEPD medium and grown at 30° C. for two days. Then, individual colonies were picked and grown in solid YEPD media containing: (1) dimethyl sulfoxide (DMSO), (2) 10, 25, or 50 μM PN6, or (3) 25 μM β-sitosterol at 30° C. overnight, and a small number of yeast cells were then plated onto a fresh YEPD plate for lifespan analysis. After overnight growth on the lifespan plates, the cells were arrayed on the plate using a micromanipulator and allowed to grow for approximately 3 hours. Virgin daughter cells were selected and subjected to lifespan analysis. In the lifespan experiments, the plates were incubated at 30° C. during the day and stored at 4° C. overnight. Each experiment consisted of more than 50 mother cells and was independently repeated three times.

## CC[C@H](CC[C@@H](C)[C@H]1CC[C@H]2[C@@H]3CC=C4C[C@@H](O)CC[C@]4(C)[C@H]3CC[C@]12C)C(C)C [3-sitosterol, β-sitosterol]
  extension of the RLS of yeast: not seen
